# “Also recorded” adds a separate entry of the source.
# Columns and labels:
# [1] = test system: AKT phosphorylation, SOX2, CDK6 and CSC-associated molecules in LY8-RCHO cells; assay: Immunoblot analysis; assay type: cell-based, human
# [2] = test system: LY8-RCHO cells; assay: Aldefluor analysis (ALDH1+ cells); assay type: cell-based, human
# Procedure: (§1) ALDH1 is a selectable marker for a variety of normal and cancer stem cells, including hematopoietic stem cells. Therefore, we assessed the number of cancer stem cells in hematopoietic malignancies by detecting ALDH1 positive cells. As previously described, we used an ALDEFLUOR™ kit (StemCell Technologies, Vancouver, BC, CA) to detect populations with high ALDH1 activity. Briefly, 1×10^6 cells were suspended in 1 mL of assay buffer containing 1 μM of BAAA, a substrate of […]. Suspended cells were then equally divided into two samples, one as a negative control and the other as a test sample. To form the negative control, […] of DEAB, a specific ALDH inhibitor, was added to one equally-divided sample. Cells were then incubated at 37° C. for 30 minutes prior to flow cytometry analysis.
# [3] = test system: NU-DUL-1-RCHO cells; assay: Aldefluor analysis (ALDH1+ cells); assay type: cell-based, human
# Procedure: as §1
# [4] = test system: LY8-RCHO cells; assay: EdU cell proliferation assay; assay type: cell-based, human; conditions: 1 μM
# Procedure: (§2) RCHO-resistant DLBCL cells were pretreated with duvelisib, abemaciclib, or AZD4547 at a concentration of 1 μM for 48 or 120 hours prior to EdU assay. For 120 hours of the study, the medium was replaced with a fresh medium containing 1 μM of inhibitor at 48 hours. EdU cell proliferation assay was performed by using a cell-light EdU Apollo643 in vitro flow cytometry kit (RiboBio Inc., Guangzhou, China) according to its instructions. Next, we assayed EdU staining positive cells on a Cytomics FC500 MPL flow cytometer (Beckman Coulter, Brea, Calif.).
# [5] = test system: NU-DUL-1-RCHO cells; assay: EdU cell proliferation assay; assay type: cell-based, human; conditions: 1 μM
# Procedure: as §2
# [6] = test system: LY8-RCHO-Luc cells; assay: Transplantation model, bioluminescence tumor growth and survival; assay type: in vivo; conditions: SCID mice bearing LY8-RCHO-Luc cells; for tumor growth (total photon flux): dosing per Table 1
# Description: (§3) Construction of a transplantation model: we transduced LY8-RCHO cells and NU-DUL-1-RCHO cells with lentiviruses overexpressing the firefly luciferase gene to generate stable cells expressing firefly luciferase, referred to as LY8-RCHO-Luc cells and NU-DUL-1-RCHO-Luc cells, respectively. 8-week-old female SCID mice were purchased from SLAC (Shanghai laboratory animal center). The LY8-RCHO-Luc cells and NU-DUL-1-RCHO-Luc cells were resuspended in PBS prior to intraperitoneal injection of 1.5×10^7 cells per mouse. After intraperitoneal injection of the LY8-RCHO-Luc cells, mice were randomized into 6 groups (7 mice in every group) and given saline, R-CHOP, duvelisib, abemaciclib, R-CHOP+duvelisib, and R-CHOP+abemaciclib, respectively. Mice inoculated with the NU-DUL-1-RCHO-Luc cells were randomly divided into 6 groups (7 mice in every group), and were given saline, R-CHOP, duvelisib, AZD4547, R-CHOP+duvelisib, and R-CHOP+AZD4547, respectively. The drug dosing method based on one course of clinical use is shown in Table 1; the R-CHOP regimen was clinically used to treat DLBCL, while duvelisib, abemaciclib, and AZD4547 were tested in clinical trials (associated NCT numbers are NCT02576275, NCT01739309, and […], respectively). Tumor growth was monitored by bioluminescence at day 50 and day 90 after inoculation. For in vivo luminescence imaging, D-luciferin (Promega, Madison, Wis.) was intraperitoneally injected into mice (150 mg/kg). After 10 minutes, the mice were anesthetized by intraperitoneal injection of pentobarbital (50 mg/kg) and then their bioluminescence intensity was examined by using an In Vivo MS FX PRO system (Bruker Corporation, Billerica, Mass.). Luminescence images were captured with an exposure time of 30 seconds and the signal intensity of the tumor was measured by using Bruker MI software. The survival time of each mouse was recorded. Surviving mice were euthanized and dissected 120 days after inoculation and no intraperitoneal tumors were found. Tumor tissue was collected from moribund mice and fixed with 4% formalin. All animal experiments were performed in strict accordance with the experiment protocol approved by the animal ethics committee of Shanghai school of medicine of Fudan university.
# [7] = test system: NU-DUL-1-RCHO-Luc cells; assay: as above; assay type: in vivo; conditions: SCID mice bearing NU-DUL-1-RCHO-Luc cells
# Description: as §3
# [8] = inhibitor combined with R-CHOP, experiment ended at day 120
# [9] = regimen or inhibitor used alone, dosing per Table 1
smiles,measurement,setting,value
C[C@H](Nc1ncnc2[nH]cnc12)c1cc2cccc(Cl)c2c(=O)n1-c1ccccc1 [duvelisib],AKT phosphorylation and expression of SOX2 and CDK6,[1],"reduces the expression of SOX2 and CDK6 by inhibiting AKT phosphorylation; also recorded: prevented phosphorylation of AKT and induced degradation of SOX2, thereby reducing expression of CDK6"
same,"levels of CSC-associated molecules (OCT4, NANOG, KLF4, c-MYC, CD34, CD133)",[1],significantly reduced levels of CSC-associated molecules in the RCHO-resistant cells
same,proportion of ALDH1+ cells (CSCs),[2],significantly reduced ALDH1+ subpopulations in LY8-RCHO and NU-DUL-1-RCHO cells
same,proportion of ALDH1+ cells (CSCs),[3],significantly reduced ALDH1+ subpopulations in LY8-RCHO and NU-DUL-1-RCHO cells
same,cell proliferation (EdU incorporation),[4]; 48 hours,strongly prevented proliferation of LY8-RCHO and NU-DUL-1-RCHO cells
same,cell proliferation (EdU incorporation),[4]; 120 hours,significantly promoted proliferation of cells at 120 hours
same,cell proliferation (EdU incorporation),[5]; 48 hours,strongly prevented proliferation of LY8-RCHO and NU-DUL-1-RCHO cells
same,cell proliferation (EdU incorporation),[5]; 120 hours,significantly promoted proliferation of cells at 120 hours
same,tumor growth (total photon flux),[6]; inhibitor combined with R-CHOP,significantly inhibited tumor growth; also recorded: completely inhibited tumor development
same,survival,[6]; [8],prolonged the survival rate compared with R-CHOP or an inhibitor alone; also recorded: all treated mice survived until the end of the experiment at day 120
same,tumor growth (total photon flux),"[6]; regimen or inhibitor used alone, vs saline, day 50 and 90","neither duvelisib nor abemaciclib alone inhibited tumor growth or prolonged the survival rate; also recorded: accelerated tumor growth compared with normal saline, although this difference was not statistically significant"
same,tumor growth (total photon flux),"[7]; inhibitor combined with R-CHOP, dosing per Table 1",completely inhibit tumor growth
same,survival time,[7]; [8],prolong the survival time to the end of the experiment at day 120
same,survival time,[7]; [9],had no efficacy on tumor growth and the survival time
same,tumor growth (total photon flux),[7]; [9],had no efficacy on tumor growth and the survival time
